System: HIV LAV1 BRU retrovirus clone
Assay: Syncytia formation in HT4LacZ cells infected with an HIV viral suspension pre-mixed with test substance
Type: cell-based
Method: The formulations were prepared according to the description discussed above, except that the F-Po was prepared with about 2% polycarbophil, no N-9 and about a 1% concentration of Carbomer 934P, rather than 0.5%, and the difference (2%) was made up with additional water.
A viral blank was used as control, and AZT was used for a positive control. Each formulation was set up as an aqueous suspension of a particular concentration. 500 μl. aliquots of viral suspension were separately mixed with 50 ,μl. of each of the test solutions. After 30 minutes, 55 μl. of each of these mixtures were tested directly on HT4LacZ cells in a well also containing DEAE dextran. During the culturing period, the virus supplies the tat gene missing in HT4LacZ cells, leading to LacZ gene transactivation coding for β-galactosidase, indicated by a histochemical coloration. After 72 hours of culturing, infection is stopped by addition of a fixator for ten minutes. After two PBS washes, the colorant is added for ninety minutes. After syncytia (giant multi-nucleated cells, formed by many cells fusing together when infected with HIV) outbreak, the colorant is replaced with water. Observation is performed with an optical microscope, yielding the following results in Table 1: […]

Compound: Cc1cn([C@H]2C[C@H](N=[N+]=[N-])[C@@H](CO)O2)c(=O)[nH]c1=O [AZT]
- Avg. # Syncytia per well (final conc. 10^−5M): 0
- Percent Reduction (of syncytia vs viral reference) (final conc. 10^−5M): 100%
- Total # Syncytia (final conc. 10^−5M): 0

Compound: nonoxynol-9 [N-9]
- viral infection remaining, % of that exhibited by the HIV viral suspension (FIG. 1) (0.1 μg/ml): 72%
- viral infection remaining, % of that exhibited by the HIV viral suspension (FIG. 1) (1 μg/ml): 36%
- Avg. # Syncytia per well (final conc. 0.10 μg/ml): 11.5
- Percent Reduction (of syncytia vs viral reference) (final conc. 0.10 μg/ml): 28%
- Total # Syncytia (final conc. 0.10 μg/ml): 46
- Avg. # Syncytia per well (final conc. 1.0 μg/ml): 5.75
- Percent Reduction (of syncytia vs viral reference) (final conc. 1.0 μg/ml): 64%
- Total # Syncytia (final conc. 1.0 μg/ml): 23

Reference: patent US20010006667A1, “USE AND COMPOSITION OF AN ANTI-SEXUALLY TRANSMITTED DISEASES FORMULATION” (priority 1994, published 2001)
